Assay [1] has as its target T1, IRAK1 (Homo sapiens (Human), UniProt P51617). The assay is described as follows: Adapta kinase assay, IRAK1. Type of assay: biochemical. Particulars: Adapta kinase assay format. An excerpt:
(§1) The IRAK1 and IRAK 4 IC50 values for various compounds disclosed herein generated from an Adapta® kinase assay format, and a Z′-LYTE™ kinases assay format, respectively, are shown in Table 1.

The target in assay [2] is T2, IRAK4 (Homo sapiens (Human), UniProt Q9NWZ3). The assay is described as follows: Z'-LYTE kinase assay, IRAK4. It is filed as biochemical. As to conditions: Z'-LYTE kinase assay format.
T2 sequence (Q9NWZ3 whole entry): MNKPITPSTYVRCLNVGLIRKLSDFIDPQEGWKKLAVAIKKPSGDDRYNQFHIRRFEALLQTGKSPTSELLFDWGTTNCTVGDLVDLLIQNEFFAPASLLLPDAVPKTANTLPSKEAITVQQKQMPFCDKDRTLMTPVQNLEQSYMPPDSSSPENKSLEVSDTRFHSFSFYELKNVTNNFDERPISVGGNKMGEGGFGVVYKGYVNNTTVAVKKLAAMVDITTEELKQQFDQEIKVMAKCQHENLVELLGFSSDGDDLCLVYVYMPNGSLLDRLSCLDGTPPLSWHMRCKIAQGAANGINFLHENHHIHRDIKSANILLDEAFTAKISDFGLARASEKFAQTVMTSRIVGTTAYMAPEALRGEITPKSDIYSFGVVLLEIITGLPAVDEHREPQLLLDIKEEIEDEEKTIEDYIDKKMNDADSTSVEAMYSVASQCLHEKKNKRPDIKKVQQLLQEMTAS
Description: as §1

Assay [3] has as its target T1, IRAK1. The assay is described as follows: Immunoblotting, IRAK1 degradation in BCWM.1 cells. It is filed as cell-based. As to conditions: overnight treatment. On the procedure: (§2) The degradation of IRAK1 or IRAK4 proteins in BCWM.1 cells was determined by immunoblotting using BCWM.1 total cell lysates prepared following overnight treatment with IRAK1/4 degraders or inhibitors using anti-IRAK1 and anti-IRAK4 antibodies (Cell Signaling Technologies, Danvers Mass.). Anti-GAPDH antibody (Santa Cruz Biotechnology) was used for determination of protein loading.
(A western blot detects proteins with antibodies after separation by electrophoresis.)

The target in assay [4] is T2, IRAK4. The assay is described as follows: Immunoblotting, IRAK4 degradation in BCWM.1 cells. Particulars: overnight treatment. It is filed as cell-based. As to the method:
as §2

Where [5] appears, read: concentrations as high as 10 μM.

T1 sequence (P51617 whole entry): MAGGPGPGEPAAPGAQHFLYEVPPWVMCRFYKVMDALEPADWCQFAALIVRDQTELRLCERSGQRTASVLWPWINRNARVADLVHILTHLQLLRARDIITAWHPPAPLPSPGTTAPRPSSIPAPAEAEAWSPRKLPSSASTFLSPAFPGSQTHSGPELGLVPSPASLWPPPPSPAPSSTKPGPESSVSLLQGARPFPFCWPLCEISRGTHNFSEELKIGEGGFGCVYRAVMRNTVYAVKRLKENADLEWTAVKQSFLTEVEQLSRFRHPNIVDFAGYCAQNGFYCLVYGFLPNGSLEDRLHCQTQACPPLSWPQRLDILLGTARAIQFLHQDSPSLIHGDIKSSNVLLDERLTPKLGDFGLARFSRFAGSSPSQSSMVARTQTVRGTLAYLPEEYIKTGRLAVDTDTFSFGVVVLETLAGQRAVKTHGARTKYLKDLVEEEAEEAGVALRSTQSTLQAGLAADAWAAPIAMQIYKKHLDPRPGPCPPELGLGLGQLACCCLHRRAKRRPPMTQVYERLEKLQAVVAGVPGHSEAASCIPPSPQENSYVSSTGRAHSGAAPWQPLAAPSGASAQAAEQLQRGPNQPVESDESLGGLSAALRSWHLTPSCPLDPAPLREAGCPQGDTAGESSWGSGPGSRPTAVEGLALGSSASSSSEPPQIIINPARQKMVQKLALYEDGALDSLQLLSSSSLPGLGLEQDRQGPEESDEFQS

What is called IC50 is the midpoint of a concentration-inhibition curve. The low end stands for greater potency, the high end for weaker potency. As to `C=CC(=O)Nc1cccc(C(=O)Nc2ccc(NC(=O)c3cccc(-c4ccn[nH]4)n3)cc2)c1` [TL2, reference compound], the IC50 is 9 nM at IRAK1 [1] and more than 10000 nM at IRAK4 [2].

With `O=C1CCC(N2Cc3c(NCCOCCOCCC(=O)N4CCC(c5cc(NC(=O)c6cccc(-c7ccn[nH]7)n6)n(-c6ccccn6)n5)CC4)cccc3C2=O)C(=O)N1` (stereo not drawn) [Compound 3, N-(3-(1-(3-(2-(2-((2-(2,6-dioxopiperidin-3-yl)-1-oxoisoindolin-4-yl)amino)ethoxy)ethoxy)propanoyl)piperidin-4-yl)-1-(pyridin-2-yl)-1H-pyrazol-5-yl)-6-(1H-pyrazol-5-yl)picolinamide], the IC50 came to 40 nM on IRAK1 [1] and 18 nM at IRAK4 [2].

For the molecule `O=C1CCC(N2C(=O)c3cccc(NCCOCCOCCOCCOCCC(=O)N4CCC(c5cc(NC(=O)c6cccc(-c7ccn[nH]7)n6)n(-c6ccccn6)n5)CC4)c3C2=O)C(=O)N1` (stereo not drawn) [Compound 1, N-(3-(1-(1-((2-(2,6-dioxopiperidin-3-yl)-1,3-dioxoisoindolin-4-yl)amino)-3,6,9,12-tetraoxapentadecan-15-oyl)piperidin-4-yl)-1-(pyridin-2-yl)-1H-pyrazol-5-yl)-6-(1H-pyrazol-5-yl)picolinamide], the figures for the IC50 on IRAK1 [1] and on IRAK4 [2] were 43 nM and 16 nM, respectively. Moreover, the “degradation of IRAK1 protein” value at IRAK1 [3] (FIG. 4) is given as “degraded”. On IRAK4 [4] (FIG. 4), the “degradation of IRAK4 protein” value is “degraded”.

Regarding `O=C1CCC(N2C(=O)c3cccc(NCCOCCOCCC(=O)N4CCC(c5cc(NC(=O)c6cccc(-c7ccn[nH]7)n6)n(-c6ccccn6)n5)CC4)c3C2=O)C(=O)N1` (stereo not drawn) [Compound 2], the IC50 amounted to 42 nM at IRAK1 [1] and 44 nM against IRAK4 [2].

With `O=C1CCC(N2C(=O)c3cccc(OCCCCCCCCC(=O)N4CCC(c5cc(NC(=O)c6cccc(-c7ccn[nH]7)n6)n(-c6ccccn6)n5)CC4)c3C2=O)C(=O)N1` (stereo not drawn) [Compound 4, N-(3-(1-(9-((2-(2,6-dioxopiperidin-3-yl)-1,3-dioxoisoindolin-4-yl)oxy)nonanoyl)piperidin-4-yl)-1-(pyridin-2-yl)-1H-pyrazol-5-yl)-6-(1H-pyrazol-5-yl)picolinamide], the values for the IC50 on IRAK1 [1] and against IRAK4 [2] were 212 nM and 142 nM, respectively.

As for `CN1C(=O)CCC(N2C(=O)c3cccc(NCCOCCOCCOCCOCCC(=O)N4CCC(c5cc(NC(=O)c6cccc(-c7ccn[nH]7)n6)n(-c6ccccn6)n5)CC4)c3C2=O)C1=O` (stereo not drawn) [Compound C1], at IRAK1 [3] (setting [5]), the “degradation of IRAK1 protein” value is reported as “no degradation”. At IRAK4 [4] (setting [5]), the “degradation of IRAK4 protein” value is “no degradation”.

Consider `CC(C)N1CCC(c2cc(NC(=O)c3cccc(-c4ccn[nH]4)n3)n(-c3ccccn3)n2)CC1` [TL1, reference compound], for which the half-inhibitory concentration (IC50) at IRAK1 [1] stood at 7 nM; at IRAK4 [2] it was 3 nM. Further, on IRAK1 [3] (concentration of 10 μM), the “effect on IRAK1 protein levels” value is “no effect”. Besides, the “effect on IRAK4 protein levels” value at IRAK4 [4] (concentration of 10 μM) is “no effect”.

The values are drawn from patent US11542251B2, “IRAK degraders and uses thereof” (DANA-FARBER CANCER INSTITUTE, INC., priority 2018, dated 2023).
